Converted amounts (≈) assume the structure as drawn. Positions of bridges follow the written chain, without caps; N, C: chain ends. Non-standard residues stand in square brackets, D forms with d. Residues, ends and D or L forms follow the SMILES beside them. Groups on a side chain read outwards from the residue. Chains are numbered I, II in the order given. *: point of attachment. Stearoyl = CCCCCCCCCCCCCCCCCC(=O)*; Dab = NCC[C@H](N)C(=O)O; Dap = NC[C@H](N)C(=O)O; Hexanoyl = CCCCCC(=O)*
Key:
Format in all cases: cell-based
[1] = test system: Pseudomonas aeruginosa (strain PA01); experiment: microbe, parasite or virus in culture; details: strain
In short: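 Broth microdilution MIC against P. aeruginosa PAO1 in LB: peptides serially diluted by ⅔, bacteria added at OD600 0.001 and incubated 18–24 h at 37 °C. MTT added; MIC is the lowest concentration preventing visible growth.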

[2] = test system: Bacillus subtilis (strain BR151); details: strain BR151
In short: (§1)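 Broth microdilution MIC in LB; overnight cultures diluted to OD600 0.001 and mixed 1:1 with ⅔-serially diluted samples (stock 1 mg mL^−1 in H2O), 37° C for 18-24 h. MTT (0.1%) added; MIC read by eye as lowest concentration inhibiting visible growth (yellow).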

[3] = test system: Escherichia coli (strain DH5α); details: DH5α
In short: as §1

MIC P. aeruginosa PAO1 [1] [µg/mL]	MIC B. subtilis BR151 [2] [µg/mL]	MIC E. coli DH5α [3] [µg/mL]	Structure (SMILES)
6 (≈ 1.19 µM)	2 (≈ 0.396 µM)	7 (≈ 1.39 µM)	NCCCC[C@H](NC(=O)[C@H](CCCCNC(=O)[C@H](Cc1ccccc1)NC(=O)[C@H](CCCCN)NC(=O)[C@H](CCCCNC(=O)[C@H](Cc1ccccc1)NC(=O)[C@H](CCCCN)NC(=O)[C@H](CCCCNC(=O)[C@H](Cc1ccccc1)NC(=O)[C@@H](N)CCCCN)NC(=O)[C@H](Cc1ccccc1)NC(=O)[C@@H](N)CCCCN)NC(=O)[C@H](Cc1ccccc1)NC(=O)[C@H](CCCCN)NC(=O)[C@H](CCCCNC(=O)[C@H](Cc1ccccc1)NC(=O)[C@@H](N)CCCCN)NC(=O)[C@H](Cc1ccccc1)NC(=O)[C@@H](N)CCCCN)NC(=O)[C@H](Cc1ccccc1)NC(=O)[C@H](CCCCN)NC(=O)[C@H](CCCCNC(=O)[C@H](Cc1ccccc1)NC(=O)[C@H](CCCCN)NC(=O)[C@H](CCCCNC(=O)[C@H](Cc1ccccc1)NC(=O)[C@@H](N)CCCCN)NC(=O)[C@H](Cc1ccccc1)NC(=O)[C@@H](N)CCCCN)NC(=O)[C@H](Cc1ccccc1)NC(=O)[C@H](CCCCN)NC(=O)[C@H](CCCCNC(=O)[C@H](Cc1ccccc1)NC(=O)[C@@H](N)CCCCN)NC(=O)[C@H](Cc1ccccc1)NC(=O)[C@@H](N)CCCCN)C(=O)N[C@@H](Cc1ccccc1)C(N)=O [MSt-174, (KF)8(KKF)4(KKF)2(KKF)] (I: H-KFK([Phe-Lys])KFKKFKKF-NH2 / II: H-KFK([Phe-Lys])KFKKF / III: H-KFK([Phe-Lys])KF / IV: H-KFK([Phe-Lys])KF; amide I:6-IV:C, I:9-II:C, II:6-III:C)
3 (≈ 0.729 µM)	2 (≈ 0.486 µM)	2 (≈ 0.486 µM)	CC(C)C[C@H](NC(=O)[C@H](CCN)NC(=O)[C@H](CCCCNC(=O)[C@H](CC(C)C)NC(=O)[C@H](CCN)NC(=O)[C@H](CCCCNC(=O)[C@H](CC(C)C)NC(=O)[C@H](CCN)NC(=O)[C@H](CCCCNC(=O)[C@H](CC(C)C)NC(=O)[C@@H](N)CCN)NC(=O)[C@H](CC(C)C)NC(=O)[C@@H](N)CCN)NC(=O)[C@H](CC(C)C)NC(=O)[C@H](CCN)NC(=O)[C@H](CCCCNC(=O)[C@H](CC(C)C)NC(=O)[C@@H](N)CCN)NC(=O)[C@H](CC(C)C)NC(=O)[C@@H](N)CCN)NC(=O)[C@H](CC(C)C)NC(=O)[C@H](CCN)NC(=O)[C@H](CCCCNC(=O)[C@H](CC(C)C)NC(=O)[C@H](CCN)NC(=O)[C@H](CCCCNC(=O)[C@H](CC(C)C)NC(=O)[C@@H](N)CCN)NC(=O)[C@H](CC(C)C)NC(=O)[C@@H](N)CCN)NC(=O)[C@H](CC(C)C)NC(=O)[C@H](CCN)NC(=O)[C@H](CCCCNC(=O)[C@H](CC(C)C)NC(=O)[C@@H](N)CCN)NC(=O)[C@H](CC(C)C)NC(=O)[C@@H](N)CCN)C(N)=O [MSt-200, (DabL)8(KDabL)4(KDabL)2(KDabL)] (I: H-[Dab]LK([Leu-Dab])[Dab]LK[Dab]LK[Dab]L-NH2 / II: H-[Dab]LK([Leu-Dab])[Dab]LK[Dab]L / III: H-[Dab]LK([Leu-Dab])[Dab]L / IV: H-[Dab]LK([Leu-Dab])[Dab]L; amide I:6-IV:C, I:9-II:C, II:6-III:C; N-terminus assumed)
2 (≈ 0.472 µM)	2 (≈ 0.472 µM)	1 (≈ 0.236 µM)	CC(C)C[C@H](NC(=O)[C@H](CCCCN)NC(=O)[C@H](CNC(=O)[C@H](CC(C)C)NC(=O)[C@H](CCCCN)NC(=O)[C@H](CNC(=O)[C@H](CC(C)C)NC(=O)[C@H](CCCCN)NC(=O)[C@H](CNC(=O)[C@H](CC(C)C)NC(=O)[C@@H](N)CCCCN)NC(=O)[C@H](CC(C)C)NC(=O)[C@@H](N)CCCCN)NC(=O)[C@H](CC(C)C)NC(=O)[C@H](CCCCN)NC(=O)[C@H](CNC(=O)[C@H](CC(C)C)NC(=O)[C@@H](N)CCCCN)NC(=O)[C@H](CC(C)C)NC(=O)[C@@H](N)CCCCN)NC(=O)[C@H](CC(C)C)NC(=O)[C@H](CCCCN)NC(=O)[C@H](CNC(=O)[C@H](CC(C)C)NC(=O)[C@H](CCCCN)NC(=O)[C@H](CNC(=O)[C@H](CC(C)C)NC(=O)[C@@H](N)CCCCN)NC(=O)[C@H](CC(C)C)NC(=O)[C@@H](N)CCCCN)NC(=O)[C@H](CC(C)C)NC(=O)[C@H](CCCCN)NC(=O)[C@H](CNC(=O)[C@H](CC(C)C)NC(=O)[C@@H](N)CCCCN)NC(=O)[C@H](CC(C)C)NC(=O)[C@@H](N)CCCCN)C(N)=O [MSt-136, (KL)8(BKL)4(BKL)2(BKL)] (I: H-KL[Dap]([Leu-Lys])KL[Dap]KL[Dap]KL-NH2 / II: H-KL[Dap]([Leu-Lys])KL[Dap]KL / III: H-KL[Dap]([Leu-Lys])KL / IV: H-KL[Dap]([Leu-Lys])KL; amide I:6-IV:C, I:9-II:C, II:6-III:C)
2 (≈ 0.805 µM)	1 (≈ 0.403 µM)	1 (≈ 0.403 µM)	CCCCCC(=O)N[C@@H](CCCCN)C(=O)N[C@@H](CC(C)C)C(=O)NCCCC[C@H](NC(=O)[C@H](CC(C)C)NC(=O)[C@H](CCCCN)NC(=O)CCCCC)C(=O)N[C@@H](CCCCN)C(=O)N[C@@H](CC(C)C)C(=O)NCCCC[C@H](NC(=O)[C@H](CC(C)C)NC(=O)[C@H](CCCCN)NC(=O)[C@H](CCCCNC(=O)[C@H](CC(C)C)NC(=O)[C@H](CCCCN)NC(=O)CCCCC)NC(=O)[C@H](CC(C)C)NC(=O)[C@H](CCCCN)NC(=O)CCCCC)C(=O)N[C@@H](CCCCN)C(=O)N[C@@H](CC(C)C)C(N)=O [MSt-290, (C6KL)4(KKL)2(KKL)] (I: Hexanoyl-KLK([Leu-Lys-Hexanoyl])KLKKL-NH2 / II: Hexanoyl-KLK([Leu-Lys-Hexanoyl])KL; amide I:6-II:C)
9 (≈ 1.83 µM)	6 (≈ 1.22 µM)	3 (≈ 0.609 µM)	CCCCCCCCCCCCCCCCCC(=O)NCCCC[C@H](NC(=O)[C@H](CC(C)C)NC(=O)[C@H](CCCCN)NC(=O)[C@H](CCCCNC(=O)[C@H](CC(C)C)NC(=O)[C@H](CCCCN)NC(=O)[C@H](CCCCNC(=O)[C@H](CC(C)C)NC(=O)[C@H](CCCCN)NC(=O)[C@H](CCCCNC(=O)[C@H](CC(C)C)NC(=O)[C@@H](N)CCCCN)NC(=O)[C@H](CC(C)C)NC(=O)[C@@H](N)CCCCN)NC(=O)[C@H](CC(C)C)NC(=O)[C@H](CCCCN)NC(=O)[C@H](CCCCNC(=O)[C@H](CC(C)C)NC(=O)[C@@H](N)CCCCN)NC(=O)[C@H](CC(C)C)NC(=O)[C@@H](N)CCCCN)NC(=O)[C@H](CC(C)C)NC(=O)[C@H](CCCCN)NC(=O)[C@H](CCCCNC(=O)[C@H](CC(C)C)NC(=O)[C@H](CCCCN)NC(=O)[C@H](CCCCNC(=O)[C@H](CC(C)C)NC(=O)[C@@H](N)CCCCN)NC(=O)[C@H](CC(C)C)NC(=O)[C@@H](N)CCCCN)NC(=O)[C@H](CC(C)C)NC(=O)[C@H](CCCCN)NC(=O)[C@H](CCCCNC(=O)[C@H](CC(C)C)NC(=O)[C@@H](N)CCCCN)NC(=O)[C@H](CC(C)C)NC(=O)[C@@H](N)CCCCN)C(N)=O [MSt-284, (KL)8(KKL)4(KKL)2(KKLKC18)] (I: H-KLK([Leu-Lys])KLKKLKKLK(Stearoyl)-NH2 / II: H-KLK([Leu-Lys])KLKKL / III: H-KLK([Leu-Lys])KL / IV: H-KLK([Leu-Lys])KL; amide I:6-IV:C, I:9-II:C, II:6-III:C)

Reference: patent US10336792B2, “Antimicrobial peptide dendrimers” (priority 2014, dated 2019)
